Laboratory results published in patent US20190375786A1, “STABLE PEPTIDES AND METHODS OF USE THEREOF” (Fred Hutchinson Cancer Research Center, priority 2016, published 2019).
Positions of bridges follow the written chain, without caps; N, C: chain ends. Residues, ends and D or L forms follow the SMILES beside them.

Key:
[1] = molecular target: trypsin (Sus scrofa, UniProt P00761); test: Trypsin digestion resistance of soluble peptide, RP-HPLC; type: in vitro ADME, porcine; parameters: purchased Sigma Aldrich 6567; details: 500 U/ml trypsin, 30 minutes at 37.5° C.; HPLC peak vs untreated peptide
In short: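 Read-out was RP-HPLC (C-18, water/acetonitrile with 0.1% TFA, 5-45% over 10 min) of peptide left after trypsin treatment. Digest: 12.5 μg peptide, 500 U/ml porcine trypsin, PBS, 37.5° C for 30 min, stopped by soybean trypsin inhibitor; samples then reduced (10 mM DTT) or left non-reduced.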

[2] = molecular target: pepsin (Sus scrofa, UniProt P00791); test: Pepsin digestion resistance in simulated gastric fluid, RP-HPLC; type: in vitro ADME, porcine; parameters: purchased Sigma Aldrich P7012; details: 500 U/ml pepsin in SGF pH 1.05, 30 minutes at 37.5° C.; HPLC peak vs untreated peptide
In short: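 Digestion resistance read by reversed-phase HPLC (C-18, 0.1% TFA, 5–45% acetonitrile over 10 min; 214/280 nm) after 12.5 μg peptide spent 30 min at 37.5 °C in pH 1.05 simulated gastric fluid, with or without 500 U/ml pepsin. Some samples quenched with Tris base and DTT.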

trypsin, sequence (P00761 9-231): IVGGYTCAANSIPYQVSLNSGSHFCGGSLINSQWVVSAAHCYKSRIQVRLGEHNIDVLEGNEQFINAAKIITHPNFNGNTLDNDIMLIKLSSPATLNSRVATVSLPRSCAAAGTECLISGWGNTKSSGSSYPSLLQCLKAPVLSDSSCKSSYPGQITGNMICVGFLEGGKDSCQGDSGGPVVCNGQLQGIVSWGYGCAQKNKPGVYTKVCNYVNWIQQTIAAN
pepsin, sequence (P00791 60-385): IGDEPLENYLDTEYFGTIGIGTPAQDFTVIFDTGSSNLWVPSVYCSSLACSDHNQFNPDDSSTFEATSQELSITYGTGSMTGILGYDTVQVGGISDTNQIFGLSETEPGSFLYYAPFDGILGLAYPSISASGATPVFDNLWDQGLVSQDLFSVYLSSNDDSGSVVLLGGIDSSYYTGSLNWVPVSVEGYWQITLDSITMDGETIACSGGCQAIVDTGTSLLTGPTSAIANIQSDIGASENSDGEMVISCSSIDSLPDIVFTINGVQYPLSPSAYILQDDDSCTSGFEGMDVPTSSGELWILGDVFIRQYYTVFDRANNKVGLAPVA

Row | SMILES | Resistance to Trypsin (500 U/ml) [1] | Resistance to Pepsin (500 U/ml) [2]
1 | CC(C)[C@H](NC(=O)[C@H](CO)NC(=O)CN)C(=O)N[C@@H](CO)C(=O)N[C@H]1CSSC[C@@H]2NC(=O)[C@H](CCCCN)NC(=O)[C@H](C)NC(=O)[C@H](CCCNC(=N)N)NC(=O)[C@H](CCC(N)=O)NC(=O)[C@H](CC(=O)O)NC(=O)[C@H](CCCCN)NC(=O)[C@H]([C@@H](C)O)NC(=O)[C@H](C)NC(=O)[C@@H]3CSSC[C@@H](C(=O)N[C@@H](CCC(=O)O)C(=O)N4CCC[C@H]4C(=O)N[C@@H](CCCCN)C(=O)O)NC(=O)[C@H](C(C)C)NC(=O)[C@H](CSSC[C@H](NC(=O)[C@H](CC(=O)O)NC(=O)[C@H](CCC(=O)O)NC1=O)C(=O)N1CCC[C@H]1C(=O)N[C@@H](CCC(=O)O)C(=O)N[C@@H](Cc1c[nH]cn1)C(=O)N3)NC(=O)[C@H](CCCNC(=N)N)NC(=O)[C@H](CC(=O)O)NC(=O)[C@H](CC(N)=O)NC(=O)[C@H](CC(=O)O)NC2=O [compound 54] (H-GSVSCEDCPEHCATKDQRAKCDNDRCVCEPK-OH; disulfide 5-21, 8-26, 12-28) | Low (A peptide classified as low indicates that the majority (over 75%) of the HPLC peak of the treated peptide disappeared as compared to the HPLC peak of the untreated peptide) | High (A peptide classified as high indicates that the majority (at least 75%) of the HPLC peak of the treated peptide is still present as compared to the HPLC peak of the untreated peptide)
2 | CC[C@H](C)[C@H](NC(=O)CNC(=O)[C@@H](NC(=O)[C@H](CO)NC(=O)[C@@H](NC(=O)[C@H](CO)NC(=O)CN)[C@@H](C)CC)[C@@H](C)CC)C(=O)N[C@@H](CCCCN)C(=O)N[C@H]1CSSC[C@@H]2NC(=O)[C@H](Cc3ccc(O)cc3)NC(=O)CNC(=O)[C@H]([C@@H](C)O)NC(=O)[C@H](Cc3ccccc3)NC(=O)[C@H](Cc3ccc(O)cc3)NC(=O)[C@H](CCCCN)NC(=O)[C@H](CCCNC(=N)N)NC(=O)[C@H]([C@@H](C)CC)NC(=O)[C@H](CCCNC(=N)N)NC(=O)[C@@H]3CSSC[C@@H](C(=O)N[C@@H](CO)C(=O)NCC(=O)O)NC(=O)[C@H](Cc4c[nH]cn4)NC(=O)[C@H](CSSC[C@H](NC(=O)[C@H](CC(C)C)NC(=O)[C@H](CC(=O)O)NC(=O)[C@H]([C@@H](C)CC)NC(=O)[C@H](CO)NC(=O)[C@@H]4CCCN4C(=O)[C@H](CO)NC1=O)C(=O)N[C@@H](CCC(=O)O)C(=O)NCC(=O)N[C@@H](CCC(N)=O)C(=O)N3)NC(=O)[C@H]([C@@H](C)O)NC(=O)[C@H](CC(=O)O)NC(=O)CNC(=O)[C@H](CO)NC2=O [compound 3] (H-GSISIGIKCSPSIDLCEGQCRIRKYFTGYCSGDTCHCSG-OH; disulfide 9-30, 16-35, 20-37) | Low (A peptide classified as low indicates that the majority (over 75%) of the HPLC peak of the treated peptide disappeared as compared to the HPLC peak of the untreated peptide) | Moderate (A peptide classified as medium indicates that about half (between 25% and 75%) of the HPLC peak of the treated peptide disappeared as compared to the HPLC peak of the untreated peptide)
3 | CC[C@H](C)[C@@H]1NC(=O)[C@@H]2CSSC[C@H](NC(=O)[C@H](CCCCN)NC(=O)[C@@H](NC(=O)[C@H](CC(N)=O)NC(=O)[C@@H](NC(=O)[C@H](CC(=O)O)NC(=O)[C@@H](NC(=O)[C@H](CCC(N)=O)NC(=O)[C@H](CO)NC(=O)CN)[C@@H](C)CC)[C@@H](C)O)C(C)C)C(=O)N[C@@H](CO)C(=O)NCC(=O)N[C@@H](CO)C(=O)N[C@@H](CO)C(=O)N[C@@H](CCCCN)C(=O)N[C@H]3CSSC[C@H](NC(=O)[C@H](CCCNC(=N)N)NC(=O)CNC(=O)[C@H](CC(N)=O)NC1=O)C(=O)N[C@@H]([C@@H](C)O)C(=O)N[C@H](C(=O)N[C@@H](Cc1ccc(O)cc1)C(=O)N1CCC[C@H]1C(=O)O)CSSC[C@H](NC(=O)[C@H]([C@@H](C)CC)NC(=O)[C@H](CCCCN)NC(=O)[C@H](C(C)C)NC3=O)C(=O)N[C@@H]([C@@H](C)CC)C(=O)N[C@@H](CC(=O)O)C(=O)N[C@@H](CCCNC(=N)N)C(=O)N[C@@H](Cc1ccc(O)cc1)C(=O)N[C@@H](CC(N)=O)C(=O)N[C@@H]([C@@H](C)O)C(=O)N[C@@H](CCCNC(=N)N)C(=O)NCC(=O)N[C@@H](C)C(=O)N[C@@H](CCCCN)C(=O)N2 [compound 35] (H-GSQIDTNVKCSGSSKCVKICIDRYNTRGAKCINGRCTCYP-OH; disulfide 10-31, 16-36, 20-38) | Low (A peptide classified as low indicates that the majority (over 75%) of the HPLC peak of the treated peptide disappeared as compared to the HPLC peak of the untreated peptide) | Low (A peptide classified as low indicates that the majority (over 75%) of the HPLC peak of the treated peptide disappeared as compared to the HPLC peak of the untreated peptide)
4 | CC[C@H](C)[C@@H]1NC(=O)[C@H](CCCCN)NC(=O)[C@@H](NC(=O)[C@H](CCCCN)NC(=O)[C@@H](NC(=O)[C@H](CC(N)=O)NC(=O)[C@@H](NC(=O)[C@@H](NC(=O)[C@@H](NC(=O)CNC(=O)[C@H](CO)NC(=O)CN)C(C)C)[C@@H](C)CC)[C@@H](C)CC)C(C)C)CSSC[C@@H]2NC(=O)[C@H](CCCCN)NC(=O)CNC(=O)[C@H](Cc3ccccc3)NC(=O)[C@H](CCCNC(=N)N)NC(=O)[C@H](CCSC)NC(=O)CNC(=O)[C@H](C)NC(=O)[C@H](CCCCN)NC(=O)[C@H](CCCCN)NC(=O)[C@@H]3CSSC[C@@H](C(=O)N[C@H](C(=O)N4CCC[C@H]4C(=O)N[C@@H](CCCCN)C(=O)O)[C@@H](C)O)NC(=O)[C@H](Cc4c[nH]cn4)NC(=O)[C@H](CSSC[C@H](NC(=O)[C@H](CCC(N)=O)NC(=O)[C@H](CCCNC(=N)N)NC(=O)[C@H](CO)NC1=O)C(=O)N[C@@H](CC(C)C)C(=O)N[C@@H](CCC(=O)O)C(=O)N1CCC[C@H]1C(=O)N3)NC(=O)[C@H](CCCCN)NC(=O)CNC(=O)[C@H](CC(N)=O)NC(=O)[C@H](CCSC)NC2=O [compound 57] | High (A peptide classified as high indicates that the majority (at least 75%) of the HPLC peak of the treated peptide is still present as compared to the HPLC peak of the untreated peptide) | High (A peptide classified as high indicates that the majority (at least 75%) of the HPLC peak of the treated peptide is still present as compared to the HPLC peak of the untreated peptide)
5 | CC[C@H](C)[C@@H]1NC(=O)[C@@H]2CSSC[C@@H]3NC(=O)[C@H](CCCCN)NC(=O)CNC(=O)[C@H](CC(N)=O)NC(=O)[C@H](CCSC)NC(=O)[C@H](CSSC[C@H](NC(=O)[C@H](CCCCN)NC(=O)[C@@H](NC(=O)[C@H](CC(=O)O)NC(=O)[C@@H](NC(=O)[C@@H]4CCCN4C(=O)[C@@H](NC(=O)CNC(=O)[C@H](CO)NC(=O)CN)C(C)C)[C@@H](C)O)C(C)C)C(=O)N[C@@H](CCCNC(=N)N)C(=O)NCC(=O)N[C@@H](CO)C(=O)N4CCC[C@H]4C(=O)N[C@@H](CCC(N)=O)C(=O)N2)NC(=O)[C@H](CCCCN)NC(=O)CNC(=O)[C@H](Cc2ccccc2)NC(=O)[C@H](CCCNC(=N)N)NC(=O)[C@H](CCSC)NC(=O)CNC(=O)[C@H](C)NC(=O)[C@H](CC(=O)O)NC(=O)[C@H](CCCCN)NC(=O)[C@H](CSSC[C@@H](C(=O)N[C@H](C(=O)N2CCC[C@H]2C(=O)N[C@@H](CCCCN)C(=O)O)[C@@H](C)O)NC(=O)[C@H](Cc2c[nH]cn2)NC3=O)NC(=O)[C@@H]2CCCN2C(=O)[C@H](CCC(N)=O)NC1=O [compound 56] (H-GSGVPTDVKCRGSPQCIQPCKDAGMRFGKCMNGKCHCTPK-OH; disulfide 10-30, 16-35, 20-37) | Low (A peptide classified as low indicates that the majority (over 75%) of the HPLC peak of the treated peptide disappeared as compared to the HPLC peak of the untreated peptide) | High (A peptide classified as high indicates that the majority (at least 75%) of the HPLC peak of the treated peptide is still present as compared to the HPLC peak of the untreated peptide)
6 | CC[C@H](C)[C@@H]1NC(=O)[C@@H](NC(=O)[C@H](CC(=O)O)NC(=O)[C@H](CCCCN)NC(=O)[C@H](CCC(=O)O)NC(=O)[C@H](CO)NC(=O)[C@H](CO)NC(=O)CN)CSSC[C@@H]2NC(=O)[C@@H]3CSSC[C@@H](C(=O)N[C@@H](CCCNC(=N)N)C(=O)O)NC(=O)[C@H](CCCNC(=N)N)NC(=O)[C@H](CCCCN)NC(=O)[C@H](CCC(=O)O)NC(=O)[C@@H]4CCCN4C(=O)[C@H](CC(N)=O)NC(=O)[C@H]([C@@H](C)O)NC(=O)CNC(=O)[C@H](CCCNC(=N)N)NC(=O)[C@H](CCCNC(=N)N)NC(=O)[C@H](CO)NC(=O)[C@H](CSSC[C@H](NC(=O)[C@H](CCCNC(=N)N)NC(=O)[C@H](CCC(N)=O)NC(=O)[C@H](CC(C)C)NC(=O)[C@H](Cc4c[nH]cn4)NC(=O)[C@H](CCCCN)NC1=O)C(=O)N[C@@H](CCCNC(=N)N)C(=O)N[C@@H](CCC(=O)O)C(=O)N[C@@H](CC(N)=O)C(=O)N[C@@H](CCCCN)C(=O)N[C@@H](CC(=O)O)C(=O)N3)NC(=O)[C@H](CCCCN)NC(=O)[C@H](CCCCN)NC(=O)[C@H](CO)NC2=O [compound 29] (H-GSSEKDCIKHLQRCRENKDCCSKKCSRRGTNPEKRCR-OH; disulfide 7-21, 14-25, 20-36) | Low (A peptide classified as low indicates that the majority (over 75%) of the HPLC peak of the treated peptide disappeared as compared to the HPLC peak of the untreated peptide) | High (A peptide classified as high indicates that the majority (at least 75%) of the HPLC peak of the treated peptide is still present as compared to the HPLC peak of the untreated peptide)
